Data taken from US11236069B2, “KIF18A inhibitors” (AMGEN INC., priority 2018, dated 2022).

Target: Recombinant human KIF18A (1-467 His-tagged) protein (Homo sapiens (Human), UniProt Q8NI77)
Test: KIF18A Enzyme Assay: microtubule-stimulated ATPase activity (ADP-Glo)
Conditions: read-out: KIF18A ATPase IC50; 30 nM KIF18A, 30 μg/mL pig microtubules, ATP at Km 75 μM, ADP-Glo luminescence
Description: KIF18A Enzyme Assay: Microtubule-stimulated ATPase activity assay is used to measure KIF18A enzyme activity after treatment with compound. Compounds were 2-fold serially diluted in DMSO (Sigma Inc) over 22-point concentration range. […] The assay measures ADP formed from the ATPase reaction.

Recombinant human KIF18A (1-467 His-tagged) protein, sequence (Q8NI77 1-467): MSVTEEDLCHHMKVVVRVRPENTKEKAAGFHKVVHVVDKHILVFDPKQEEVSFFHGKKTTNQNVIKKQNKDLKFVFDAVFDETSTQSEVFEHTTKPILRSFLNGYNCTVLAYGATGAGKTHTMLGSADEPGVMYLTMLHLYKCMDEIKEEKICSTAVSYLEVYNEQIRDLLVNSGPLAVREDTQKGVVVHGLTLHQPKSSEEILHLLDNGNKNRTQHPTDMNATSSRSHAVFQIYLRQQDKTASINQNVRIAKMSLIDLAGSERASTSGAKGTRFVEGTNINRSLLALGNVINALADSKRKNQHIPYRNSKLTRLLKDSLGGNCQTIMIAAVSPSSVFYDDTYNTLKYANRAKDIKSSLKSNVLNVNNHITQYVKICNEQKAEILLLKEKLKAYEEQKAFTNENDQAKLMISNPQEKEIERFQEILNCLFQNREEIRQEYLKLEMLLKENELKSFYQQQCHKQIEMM
Recombinant human KIF18A (1-467 His-tagged) protein, sequence (P02550 whole entry partner): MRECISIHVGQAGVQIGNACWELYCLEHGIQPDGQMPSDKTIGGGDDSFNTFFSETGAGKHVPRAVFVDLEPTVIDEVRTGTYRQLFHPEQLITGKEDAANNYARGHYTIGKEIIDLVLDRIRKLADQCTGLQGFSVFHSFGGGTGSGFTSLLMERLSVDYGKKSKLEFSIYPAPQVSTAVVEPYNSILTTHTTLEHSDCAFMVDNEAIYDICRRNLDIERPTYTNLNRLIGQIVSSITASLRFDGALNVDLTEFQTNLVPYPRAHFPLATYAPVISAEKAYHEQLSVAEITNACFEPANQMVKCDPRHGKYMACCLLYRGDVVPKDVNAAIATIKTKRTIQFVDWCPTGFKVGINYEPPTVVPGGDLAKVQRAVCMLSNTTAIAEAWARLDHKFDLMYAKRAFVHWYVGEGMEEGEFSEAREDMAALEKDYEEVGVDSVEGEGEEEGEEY
Recombinant human KIF18A (1-467 His-tagged) protein, sequence (P02554 whole entry partner): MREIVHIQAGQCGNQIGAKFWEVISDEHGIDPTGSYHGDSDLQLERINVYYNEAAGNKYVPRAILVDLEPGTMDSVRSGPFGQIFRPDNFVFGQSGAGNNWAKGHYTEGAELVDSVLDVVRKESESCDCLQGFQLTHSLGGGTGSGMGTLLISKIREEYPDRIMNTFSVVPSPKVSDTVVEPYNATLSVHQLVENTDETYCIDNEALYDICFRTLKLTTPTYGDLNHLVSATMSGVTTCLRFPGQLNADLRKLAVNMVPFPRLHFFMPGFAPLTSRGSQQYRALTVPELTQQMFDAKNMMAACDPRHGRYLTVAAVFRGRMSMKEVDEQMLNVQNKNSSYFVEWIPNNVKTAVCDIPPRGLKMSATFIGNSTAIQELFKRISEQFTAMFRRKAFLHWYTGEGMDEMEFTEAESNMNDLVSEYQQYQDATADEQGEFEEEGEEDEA

SMILES | IC50
Cc1cc(NC(=O)c2ccc(NS(=O)(=O)CCO)cc2N2CCC3(CC2)CC3)nc(N2CC(C(F)(F)F)C2)n1 [Example 11-12, 4-((2-Hydroxyethyl)sulfonamido)-N-(6-methyl-2-(3-(trifluoromethyl)azetidin-1-yl)pyrimidin-4-yl)-2-(6-azaspiro[2.5]octan-6-yl)benzamide] | 93 nM
Cc1cc(NC(=O)c2ccc(S(=O)(=O)NCC(C)(C)O)cc2N2CCC3(CC2)CC3)nc(N2CCC(F)(F)CC2)n1 [Example 17-8, N-(2-(4,4-Difluoropiperidin-1-yl)-6-methylpyrimidin-4-yl)-4-(N-(2-hydroxy-2-methylpropyl)sulfamoyl)-2-(6-azaspiro[2.5]octan-6-yl)benzamide] | 286 nM
Cc1cc(NC(=O)c2ccc(S(=O)(=O)CC(C)(C)O)cc2N2CCC3(CC2)CC3)nc(N2CCC(F)(F)CC2)n1 [Example 14-4, N-(2-(4,4-Difluoropiperidin-1-yl)-6-methylpyrimidin-4-yl)-4-((2-hydroxy-2-methylpropyl)sulfonyl)-2-(6-azaspiro[2.5]octan-6-yl)benzamide] | 806 nM
Cc1cc(NC(=O)c2ccc(NS(=O)(=O)CCO)cc2N2CCC3(CC2)CC3)nc(N2CC3(CC3)C2)n1 [Example 11-17, 4-((2-Hydroxyethyl)sulfonamido)-N-(6-methyl-2-(5-azaspiro[2.3]hexan-5-yl)pyrimidin-4-yl)-2-(6-azaspiro[2.5]octan-6-yl)benzamide] | 1090 nM
CC1(NS(=O)(=O)c2ccc(C(=O)Nc3ccnc(C(C)(C)O)n3)c(N3CCC4(CC3)CC4)c2)COC1 [Example 2, N-(2-(2-Hydroxypropan-2-yl)pyrimidin-4-yl)-4-(N-(3-methyloxetan-3-yl)sulfamoyl)-2-(6-azaspiro[2.5]octan-6-yl)benzamide] | 143 nM
Cc1cc(NC(=O)c2ccc(S(C)(=O)=O)cc2N2CCC3(CC2)CC3)nc(NC[C@@H](C)O)n1 [Example 1-4, (R)-N-(2-((2-Hydroxypropyl)amino)-6-methylpyrimidin-4-yl)-4-(methylsulfonyl)-2-(6-azaspiro[2.5]octan-6-yl)benzamide] | 580 nM
Cc1cc(NC(=O)c2cc(F)c(NS(=O)(=O)CCO)cc2N2CCC3(CC2)CC3)nc(N2CCO[C@H](C)C2)n1 [Example 9-2, (R)-5-Fluoro-4-((2-hydroxyethyl)sulfonamido)-N-(6-methyl-2-(2-methylmorpholino)pyrimidin-4-yl)-2-(6-azaspiro[2.5]octan-6-yl)benzamide] | 158 nM
Cc1cc(NC(=O)c2ccc(NS(=O)(=O)C[C@@H](C)O)cc2N2CCC3(CC2)CC3)nc(N2CC(F)(F)C2)n1 (single isomer, unassigned) [Example 10-1] | 83 nM
C[C@@H]1CN(c2nccc(NC(=O)c3ccc(NS(=O)(=O)[C@@H](C)CO)cc3N3CCC4(CC3)CC4)n2)CCO1 [Example 6-24-1, 4-(((S)-2-Hydroxy-1-methylethyl)sulfonamido)-N-(2-((R)-2-methylmorpholino)pyrimidin-4-yl)-2-(6-azaspiro[2.5]octan-6-yl)benzamide] | 17.4 nM
Cc1cc(NC(=O)c2ccc(S(=O)(=O)NCCO)cc2N2CCC3(CC2)CC3)nc(OCCC(F)(F)F)n1 [Example 17-2, 4-(N-(2-Hydroxyethyl)sulfamoyl)-N-(6-methyl-2-(3,3,3-trifluoropropoxy)pyrimidin-4-yl)-2-(6-azaspiro[2.5]octan-6-yl)benzamide] | 42 nM
Cc1cc(NC(=O)c2ccc(NS(=O)(=O)CCO)cc2N2CCC3(CC2)CC3)nc(OC2CCC2)n1 [Example 11-4, N-(2-Cyclobutoxy-6-methylpyrimidin-4-yl)-4-((2-hydroxyethyl)sulfonamido)-2-(6-azaspiro[2.5]octan-6-yl)benzamide] | 18 nM
Cc1cc(NC(=O)c2ccc(NS(=O)(=O)C3([C@H](C)O)CC3)cc2N2CCC3(CC2)CC3)nc(N2CCC(F)(F)CC2)n1 [Example 6-31-2, (S)-N-(2-(4,4-Difluoropiperidin-1-yl)-6-methylpyrimidin-4-yl)-4-((1-(1-hydroxyethyl)cyclopropane)-1-sulfonamido)-2-(6-azaspiro[2.5]octan-6-yl)benzamide] | 281 nM
C[C@@H]1CN(c2nccc(NC(=O)c3ccc(S(C)(=O)=O)cc3N3CCC4(CC3)CC4)n2)CCO1 [Example 2-7, (R)-N-(2-(2-Methylmorpholino)pyrimidin-4-yl)-4-(methylsulfonyl)-2-(6-azaspiro[2.5]octan-6-yl)benzamide] | 240 nM
Cc1cc(NC(=O)c2ccc(NS(=O)(=O)CCO)cc2N2CCC3(CC2)CC3)nc(N2CCC(F)CC2)n1 [Example 11-51, N-(2-(4-Fluoropiperidin-1-yl)-6-methylpyrimidin-4-yl)-4-((2-hydroxyethyl)sulfonamido)-2-(6-azaspiro[2.5]octan-6-yl)benzamide] | 20 nM
Cc1cc(NC(=O)c2ccc(NS(C)(=O)=O)cc2N2CCC3(CC2)CC3)nc(N2CCC(F)CC2)n1 [Example 11-81, N-(2-(4-Fluoropiperidin-1-yl)-6-methylpyrimidin-4-yl)-4-(methylsulfonamido)-2-(6-azaspiro[2.5]octan-6-yl)benzamide] | 60 nM
Cc1cc(NC(=O)c2ccc(NS(=O)(=O)CCO)cc2N2CCC3(CC2)CC3)nc(N2CCOC(C)(C)C2)n1 [Example 11-46, N-(2-(2,2-Dimethylmorpholino)-6-methylpyrimidin-4-yl)-4-((2-hydroxyethyl)sulfonamido)-2-(6-azaspiro[2.5]octan-6-yl)benzamide] | 150 nM
Cc1cc(NC(=O)c2ccc(S(=O)(=O)[C@@H]3CCC[C@H]3O)cc2N2CCC3(CC2)CC3)nc(N2CCC(F)(F)CC2)n1 [Example 14-9, N-(2-(4,4-Difluoropiperidin-1-yl)-6-methylpyrimidin-4-yl)-4-(((1R,2R)-2-hydroxycyclopentyl)sulfonyl)-2-(6-azaspiro[2.5]octan-6-yl)benzamide] | 195 nM
Cc1cc(NC(=O)c2ccc(NS(=O)(=O)C3CCC3)cc2N2CCC3(CC2)CC3)nc(N2CCC(F)(F)CC2)n1 [Example 6-11, 4-(Cyclobutanesulfonamido)-N-(2-(4,4-difluoropiperidin-1-yl)-6-methylpyrimidin-4-yl)-2-(6-azaspiro[2.5]octan-6-yl)benzamide] | 127 nM
Cc1cc(NC(=O)c2ccc(NS(=O)(=O)CCO)cc2N2CCC3(CC2)CC3)nc(N2CC(C)(O)C2)n1 [Example 11-15, N-(2-(3-Hydroxy-3-methylazetidin-1-yl)-6-methylpyrimidin-4-yl)-4-((2-hydroxyethyl)sulfonamido)-2-(6-azaspiro[2.5]octan-6-yl)benzamide] | 935 nM
Cc1cc(NC(=O)c2ccc(NS(=O)(=O)CCO)cc2N2CCC3(CC2)CC3)nc(N2CCCC(F)(F)C2)n1 [Example 11-39, N-(2-(3,3-Difluoropiperidin-1-yl)-6-methylpyrimidin-4-yl)-4-((2-hydroxyethyl)sulfonamido)-2-(6-azaspiro[2.5]octan-6-yl)benzamide] | 45 nM
N=S(=O)(c1ccc(C(=O)Nc2ccnc(N3CCC(F)(F)CC3)c2)c(N2CCC3(CC2)CC3)c1)C1CC1 (stereo not drawn) [Example 19-6, 4-(Cyclopropanesulfonimidoyl)-N-(2-(4,4-difluoropiperidin-1-yl)pyridin-4-yl)-2-(6-azaspiro[2.5]octan-6-yl)benzamide] | 42 nM
